Measured values: US20170271704A1, “MITIGATION OF CROSSOVER WITHIN FLOW BATTERIES” (LOCKHEED MARTIN ADVANCED ENERGY STORAGE,LLC, priority 2016, published 2017)

Assays:
[1] = in water; active material for positive half-cell of a flow battery; cited from earlier work
[2] = Aqueous solubility (Table 1 comparison of positive half-cell active materials); details: effective concentration of transferrable electrons (solubility x electrons transferred)

## Fe(CN)6^3−^/4−
[1]
  Aqueous Solubility: 1300 to 1600 mM
[2]
  Electron Aqueous Solubility: 1300 to 1600 mM
